Values after ≈ are worked out from the molar mass of the structure shown.
How the values were obtained:
[1] = test system: S. haemolyticus; experiment: MIC in Nutrient Agar; format: cell-based, Staphylococcus haemolyticus; conditions: Nutrient Agar containing 0.1 μg/ml of inducer; 37° C., 24 hours
Experimental: (§1) The triclosan-glycosides were added to Nutrient Agar (Oxoid CM0003; Thermofisher Scientific) and organisms were transferred onto the plates surface using a multi-point inoculation device (Oxoid Cathra, Thermofisher Scientific). The latter is essentially a metal plate containing a number of needles. Each needle tip (usually 36 per plate) dips into an organism suspension (in phosphate buffered saline; PBS) and the needles are then moved over the agar plate and lowered onto its surface. In this way the growth of colonies of up to 36 different organisms can be observed on one plate.
(§2) Nutrient Agar No. 2 was prepared according to the manufacturers instructions, autoclaved and cooled to 50° C. Test compounds were then added as filter sterilised solutions (50:50 deionised water:ethanol), to give final concentrations from 256 μg/ml to 0 μg/ml in doubling dilutions. […] The mixtures were swirled then four plates (25 ml molten agar) were poured for each concentration. Plates were dried in a laminar flow cabinet then inoculated with overnight cultures of organisms that had been decimally diluted twice in sterile saline solution (approximately 10^7 cfu/ml) using a multi-point inoculator. Plates were then incubated at 37° C. for 24 hours. MICs were determined as the concentration at which no growth was observed.

[2] = test system: Kleb. aerogenes NCTC 88167; experiment: MIC in Nutrient Broth No. 2; format: cell-based, Klebsiella aerogenes; conditions: Nutrient Broth No. 2
Experimental: (§3) Bacteria species as indicated in Table 1 were incubated for approximately 24 hours at 37° C.
(§4) The tests were repeated with the addition of inducers. Methyl glycoside was the main inducer used, but other suitable inducers include isopropyl-β-D-thiogalactopyranoside, p-nitrophenyl-α-L-arabinopyranoside and p-nitrophenyl-β-D-xylopyranoside. Concentration of inducer in all cases was 100 μg/ml.

[3] = test system: Ser. marcescens; experiment: MIC in Nutrient Agar; format: cell-based, Serratia marcescens; conditions: Nutrient Agar containing 0.1 μg/ml of inducer; 37° C., 24 hours
Experimental: as §1, §2

[4] = test system: E. hermanii; experiment: MIC in Nutrient Agar; format: cell-based, Escherichia hermanii; conditions: Nutrient Agar containing 0.1 μg/ml of inducer; 37° C., 24 hours
Experimental: as §1, §2

[5] = test system: Kleb. pneumoniae; experiment: MIC in Nutrient Agar; format: cell-based, Klebsiella pneumoniae; conditions: Nutrient Agar containing 0.1 μg/ml of inducer; 37° C., 24 hours
Experimental: as §1, §2

[6] = test system: E. coli; experiment: MIC in Nutrient Agar; format: cell-based, Escherichia coli; conditions: 8 strains; Nutrient Agar containing 0.1 μg/ml of inducer; 37° C., 24 hours
Experimental: as §1, §2

[7] = test system: Staph. aureus; experiment: MIC in Nutrient Broth No. 2; format: cell-based, Staphylococcus aureus; conditions: 8 strains, Nutrient Broth No. 2
Experimental: as §3, §4

[8] = test system: Strep. pyogenes ATCC 19615; experiment: MIC in Nutrient Broth No. 2; format: cell-based, Streptococcus pyogenes; conditions: Nutrient Broth No. 2
Experimental: as §3, §4

[9] = test system: Ent. faecalis; experiment: MIC in Nutrient Agar; format: cell-based, Enterococcus faecalis; conditions: Nutrient Agar containing 0.1 μg/ml of inducer; 37° C., 24 hours
Experimental: as §1, §2

[10] = test system: Strep. agalactiae OCC 182; experiment: MIC in Nutrient Broth No. 2; format: cell-based, Streptococcus agalactiae; conditions: Nutrient Broth No. 2
Experimental: as §3, §4

[11] = test system: Aer. hydrophila; experiment: MIC in Nutrient Agar; format: cell-based, Aeromonas hydrophila; conditions: Nutrient Agar containing 0.1 μg/ml of inducer; 37° C., 24 hours
Experimental: as §1, §2

[12] = test system: Cr. sakazakii; experiment: MIC in Nutrient Agar; format: cell-based, Cronobacter sakazakii; conditions: Nutrient Agar containing 0.1 μg/ml of inducer; 37° C., 24 hours
Experimental: as §1, §2

[13] = test system: Str. pneumoniae; experiment: MIC in Nutrient Agar; format: cell-based, Streptococcus pneumoniae; conditions: Nutrient Agar containing 0.1 μg/ml of inducer; 37° C., 24 hours
Experimental: as §1, §2

[14] = test system: Ent. cloacae ATCC 13047; experiment: MIC in Nutrient Broth No. 2; format: cell-based, Enterobacter cloacae; conditions: Nutrient Broth No. 2
Experimental: as §3, §4

[15] = test system: C. freundii; experiment: MIC in Nutrient Agar; format: cell-based, Citrobacter freundii; conditions: Nutrient Agar containing 0.1 μg/ml of inducer; 37° C., 24 hours
Experimental: as §1, §2

[16] = test system: Ent. faecium; experiment: MIC in Nutrient Agar; format: cell-based, Enterococcus faecium; conditions: Nutrient Agar containing 0.1 μg/ml of inducer; 37° C., 24 hours
Experimental: as §1, §2

[17] = test system: Ps. Aeruginosa ATCC 27853; experiment: MIC in Nutrient Broth No. 2; format: cell-based; conditions: Nutrient Broth No. 2
Experimental: as §3, §4

[18] = test system: Proteus mirabilis ATCC 12453; experiment: MIC in Nutrient Broth No. 2; format: cell-based; conditions: Nutrient Broth No. 2
Experimental: as §3, §4

[19] = test system: Citrobacter freundii OCC 851; experiment: MIC in Nutrient Broth No. 2; format: cell-based; conditions: Nutrient Broth No. 2
Experimental: as §3, §4

[20] = test system: Enterobacter aerogenes ATCC 13048; experiment: MIC in Nutrient Broth No. 2; format: cell-based; conditions: Nutrient Broth No. 2
Experimental: as §3, §4

[21] = test system: Hafnia alvei ATCC 13337; experiment: MIC in Nutrient Broth No. 2; format: cell-based; conditions: Nutrient Broth No. 2
Experimental: as §3, §4

[22] = test system: Bacillus subtilis NCTC 10073; experiment: MIC in Nutrient Broth No. 2; format: cell-based; conditions: Nutrient Broth No. 2
Experimental: as §3, §4

[23] = test system: Bacillus cereus ATCC 14579; experiment: MIC in Nutrient Broth No. 2; format: cell-based; conditions: Nutrient Broth No. 2
Experimental: as §3, §4

[24] = test system: Proteus vulgaris OCC 195; experiment: MIC in Nutrient Broth No. 2; format: cell-based; conditions: Nutrient Broth No. 2
Experimental: as §3, §4

[25] = test system: Salmonella; experiment: MIC in Nutrient Broth No. 2; format: cell-based; conditions: 11 strains, Nutrient Broth No. 2
Experimental: as §3, §4

[26] = test system: Aeromonas hydrophila OCC 778; experiment: MIC in Nutrient Broth No. 2; format: cell-based; conditions: Nutrient Broth No. 2
Experimental: as §3, §4

[27] = test system: Escherichia coli; experiment: MIC in Nutrient Broth No. 2; format: cell-based; conditions: 8 strains, Nutrient Broth No. 2
Experimental: as §3, §4

[28] = test system: Enterococcus faecalis ATCC 29212; experiment: MIC in Nutrient Broth No. 2; format: cell-based; conditions: Nutrient Broth No. 2
Experimental: as §3, §4

[29] = test system: Enterococcus faecium ATCC 19434; experiment: MIC in Nutrient Broth No. 2; format: cell-based; conditions: Nutrient Broth No. 2
Experimental: as §3, §4

[30] = test system: Serratia marcescens OCC 217; experiment: MIC in Nutrient Broth No. 2; format: cell-based; conditions: Nutrient Broth No. 2
Experimental: as §3, §4

[31] = test system: Str. viridans; experiment: MIC in Nutrient Agar; format: cell-based, Streptococcus viridans; conditions: Nutrient Agar containing 0.1 μg/ml of inducer; 37° C., 24 hours
Experimental: as §1, §2

[32] = test system: Staph. saprophyticus ATCC 15305; experiment: MIC in Nutrient Broth No. 2; format: cell-based, Staphylococcus saprophyticus; conditions: Nutrient Broth No. 2
Experimental: as §3, §4

[33] = test system: Kleb. aerogenes; experiment: MIC in Nutrient Agar; format: cell-based, Klebsiella aerogenes; conditions: Nutrient Agar containing 0.1 μg/ml of inducer; 37° C., 24 hours
Experimental: as §1, §2

`OC[C@H]1O[C@H](Oc2cc(Cl)ccc2Oc2ccc(Cl)cc2Cl)[C@H](O)[C@@H](O)[C@@H]1O` [α-D-Glucoside, triclosan-α-D-glucopyranoside] gave an MIC [1] of 1 µg/mL (≈ 2.21 µM), an MIC ([2]; with inducer 100 μg/ml) of 4 µg/mL (≈ 8.86 µM) and an MIC ([2]; without inducer) of 2 µg/mL (≈ 4.43 µM). The MIC [3] was >256 µg/mL, the MIC [4] was 1 µg/mL (≈ 2.21 µM) and the MIC [5] was 0.5 µg/mL (≈ 1.11 µM). The MIC [6] was 0.5 to 4 µg/mL, the MIC ([7]; with inducer 100 μg/ml) was 1 µg/mL (≈ 2.21 µM) and the MIC ([7]; without inducer) was 1 µg/mL (≈ 2.21 µM). For the same compound, the MIC ([8]; with inducer 100 μg/ml) was 16 µg/mL (≈ 35.4 µM), the MIC ([8]; without inducer) was 32 µg/mL (≈ 70.8 µM) and the MIC [9] was 128 µg/mL (≈ 283 µM). For the same compound, the MIC ([10]; with inducer 100 μg/ml) was 128 µg/mL (≈ 283 µM), the MIC ([10]; without inducer) was 128 µg/mL (≈ 283 µM) and the MIC [11] was 128 µg/mL (≈ 283 µM). For the same compound, the MIC [12] was 4 µg/mL (≈ 8.86 µM), the MIC [13] was 32 µg/mL (≈ 70.8 µM) and the MIC ([14]; with inducer 100 μg/ml) was 1 µg/mL (≈ 2.21 µM). For the same compound, the MIC ([14]; without inducer) was 1 µg/mL (≈ 2.21 µM), the MIC [15] was 4 µg/mL (≈ 8.86 µM) and the MIC [16] was 128 µg/mL (≈ 283 µM). For the same compound, the MIC ([17]; with inducer 100 μg/ml) was >256 µg/mL, the MIC ([17]; without inducer) was >256 µg/mL and the MIC ([18]; with inducer 100 μg/ml) was 2 µg/mL (≈ 4.43 µM). For the same compound, the MIC ([18]; without inducer) was 2 µg/mL (≈ 4.43 µM), the MIC ([19]; with inducer 100 μg/ml) was 4 µg/mL (≈ 8.86 µM) and the MIC ([19]; without inducer) was 4 µg/mL (≈ 8.86 µM). It also gave an MIC ([20]; with inducer 100 μg/ml) of 4 µg/mL (≈ 8.86 µM), an MIC ([20]; without inducer) of 8 µg/mL (≈ 17.7 µM) and an MIC ([21]; with inducer 100 μg/ml) of 1 µg/mL (≈ 2.21 µM). It also gave an MIC ([21]; without inducer) of 1 µg/mL (≈ 2.21 µM), an MIC ([22]; with inducer 100 μg/ml) of 32 µg/mL (≈ 70.8 µM) and an MIC ([22]; without inducer) of 32 µg/mL (≈ 70.8 µM). The MIC ([23]; with inducer 100 μg/ml) was 128 µg/mL (≈ 283 µM), the MIC ([23]; without inducer) was 128 µg/mL (≈ 283 µM) and the MIC ([24]; with inducer 100 μg/ml) was 4 µg/mL (≈ 8.86 µM). The MIC ([24]; without inducer) was 4 µg/mL (≈ 8.86 µM), the MIC ([25]; with inducer 100 μg/ml) was 1 to 4 µg/mL and the MIC ([25]; without inducer) was 2 to 8 µg/mL. For the same compound, the MIC ([26]; with inducer 100 μg/ml) was 256 µg/mL (≈ 567 µM), the MIC ([26]; without inducer) was 256 µg/mL (≈ 567 µM) and the MIC ([27]; with inducer 100 μg/ml) was 1 to 4 µg/mL. It also gave an MIC ([27]; without inducer) of 2 to 8 µg/mL, an MIC ([28]; with inducer 100 μg/ml) of 128 µg/mL (≈ 283 µM) and an MIC ([28]; without inducer) of 128 µg/mL (≈ 283 µM). For the same compound, the MIC ([29]; with inducer 100 μg/ml) was 256 µg/mL (≈ 567 µM), the MIC ([29]; without inducer) was 256 µg/mL (≈ 567 µM) and the MIC ([30]; with inducer 100 μg/ml) was >256 µg/mL. The MIC ([30]; without inducer) was >256 µg/mL, the MIC [31] was 64 µg/mL (≈ 142 µM) and the MIC ([32]; with inducer 100 μg/ml) was 4 µg/mL (≈ 8.86 µM). It also gave an MIC ([32]; without inducer) of 4 µg/mL (≈ 8.86 µM) and an MIC [33] of 2 µg/mL (≈ 4.43 µM).

From patent US9908912B2, “Triclosan derivatives and uses thereof” (priority 2012, dated 2018)
